US20220315572A1, “SUBSTITUTED CYANOPYRROLIDINES WITH ACTIVITY AS USP30 INHIBITORS” (MISSION THERAPEUTICS LIMITED, priority 2019, published 2022)

Assays:
[1] = biological target: T1, USP30 (Homo sapiens, UniProt Q70CQ3); test: USP30 biochemical IC50 assay (fluorescence polarisation); conditions: for IC50: USP30 biochemical IC50 assay, exemplary compounds, read-out: IC50; for fold more potent against USP30 than Reference Example A: v Reference Example A; for fold more potent against USP30 than Reference Example E: v Reference Example E; for fold more potent against USP30 than Reference Example F: v Reference Example F; for fold more potent against USP30 than Reference Example G: v Reference Example G
T1 construct: purchased Boston Biochem E582
T1 sequence (Q70CQ3 57-517 limits assumed): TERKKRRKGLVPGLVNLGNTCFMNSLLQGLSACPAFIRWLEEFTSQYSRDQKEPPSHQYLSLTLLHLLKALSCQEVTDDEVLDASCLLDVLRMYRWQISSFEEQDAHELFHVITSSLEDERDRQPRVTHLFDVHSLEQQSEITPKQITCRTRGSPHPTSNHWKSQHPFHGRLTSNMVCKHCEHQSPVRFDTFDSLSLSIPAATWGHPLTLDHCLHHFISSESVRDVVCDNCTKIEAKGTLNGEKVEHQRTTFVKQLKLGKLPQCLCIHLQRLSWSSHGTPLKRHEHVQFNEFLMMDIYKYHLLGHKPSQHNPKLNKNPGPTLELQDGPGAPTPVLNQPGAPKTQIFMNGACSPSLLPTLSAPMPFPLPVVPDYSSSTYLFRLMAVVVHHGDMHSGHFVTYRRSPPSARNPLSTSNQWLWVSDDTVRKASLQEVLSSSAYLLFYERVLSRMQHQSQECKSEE
Procedure: Dilution plates were prepared at 21 times the final concentration (2100 μM for a final concentration of 100 μM) in 50% DMSO in a 96-well polypropylene V-bottom plate (Greiner #651201). A typical 8-point dilution series would be 100, 30, 10, 3, 1, 0.3, 0.1, 0.03 μM final. Reactions were performed in duplicate in black 384 well plates (small volume, Greiner 784076) in a final reaction volume of 21 μl. Either […] of 50% DMSO or diluted compound was added to the plate. USP30 (Boston Biochem #E582) was diluted in reaction buffer (40 mM Tris, pH 7.5, 0.005% Tween 20, 0.5 mg/ml BSA, 5 mM beta-mercaptoethanol) to achieve a final assay concentration of 4 nM, and 10 μl of diluted USP30 was added to the compound. Enzyme and compound were incubated for 30 min at room temp. Reactions were initiated by the addition of 50 nM of TAMRA labelled peptide linked to ubiquitin via an iso-peptide bond as fluorescence polarisation substrate. Reactions were read immediately after addition of substrate and following a 2-hour incubation at room temperature. Readings were performed on a Pherastar Plus (BMG Labtech). λ Excitation 540 nm; λ Emission 590 nm.

[2] = biological target: T2, UCHL1 (Homo sapiens, UniProt P09936); test: DUB biochemical IC50 assay, UCHL1
T2 sequence (P09936 1-223): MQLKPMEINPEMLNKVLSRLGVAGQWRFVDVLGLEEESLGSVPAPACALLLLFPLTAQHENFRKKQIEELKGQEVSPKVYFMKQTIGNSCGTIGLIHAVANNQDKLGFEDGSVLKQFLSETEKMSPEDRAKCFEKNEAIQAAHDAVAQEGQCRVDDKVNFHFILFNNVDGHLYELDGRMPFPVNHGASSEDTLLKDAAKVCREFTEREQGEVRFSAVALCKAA

[3] = biological target: T3, Cathepsin K (Homo sapiens, UniProt P43235); test: Cathepsin IC50, cathepsin K; assay type: biochemical
T3 sequence (P43235 115-329): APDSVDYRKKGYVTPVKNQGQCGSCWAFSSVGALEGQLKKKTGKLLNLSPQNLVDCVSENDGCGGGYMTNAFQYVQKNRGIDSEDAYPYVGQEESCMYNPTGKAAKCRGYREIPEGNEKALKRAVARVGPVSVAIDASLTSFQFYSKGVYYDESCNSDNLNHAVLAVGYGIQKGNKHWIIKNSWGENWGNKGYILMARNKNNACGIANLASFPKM

[4] = biological target: Cathepsin S (Homo sapiens, UniProt P25774); test: Cathepsin IC50, cathepsin S; assay type: biochemical
[5] = biological target: T4, Endogenous USP30 (Homo sapiens, UniProt Q70CQ3); test: USP30 endogenous cellular target engagement western blot assay (Cell TE WB); assay type: cell-based; conditions: Hela cells stably overexpressing YFP-Parkin, 1 hour
T4 construct: USP30 endogenous cellular target engagement western blot (WB) assay; endogenous in cells; host or cells: HeLa stably overexpressing YFP-Parkin
T4 sequence (Q70CQ3 1-517): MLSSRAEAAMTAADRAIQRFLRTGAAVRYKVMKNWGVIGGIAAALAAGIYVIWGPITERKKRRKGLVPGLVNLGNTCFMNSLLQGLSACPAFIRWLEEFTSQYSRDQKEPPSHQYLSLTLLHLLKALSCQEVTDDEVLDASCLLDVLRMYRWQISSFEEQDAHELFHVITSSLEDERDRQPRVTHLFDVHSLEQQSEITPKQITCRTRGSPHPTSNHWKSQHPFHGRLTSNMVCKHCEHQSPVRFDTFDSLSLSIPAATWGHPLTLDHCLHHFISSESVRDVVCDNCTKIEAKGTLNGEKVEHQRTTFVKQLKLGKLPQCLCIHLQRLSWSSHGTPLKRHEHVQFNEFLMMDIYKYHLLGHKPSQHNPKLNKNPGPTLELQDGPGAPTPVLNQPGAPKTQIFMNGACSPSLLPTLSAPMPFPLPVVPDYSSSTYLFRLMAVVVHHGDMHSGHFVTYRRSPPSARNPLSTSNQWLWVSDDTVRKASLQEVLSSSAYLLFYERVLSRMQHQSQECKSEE
Procedure: Hela cells stably overexpressing YFP-Parkin were seeded into 6 well dishes. Once adhered, cells were treated with appropriate concentrations of test compounds or vehicle control for 1 hour at 37° C., 5% CO2. Whole cell lysates were prepared by scraping the cells into cold PBS, centrifuging and lysing in lysis buffer (50 mM Tris-base, pH 7.5, 50 mM NaCl, 1% NP-40/Igepal CA-630, 2 mM MgCl2, 10% Glycerol, 5 mM beta-mercaptoethanol, cOmplete mini tablets EDTA free (Roche), PhosStop tablets (Roche)) for 10 mins. The equivalent of 20 μg of protein from the cleared cell lysate was incubated with a final conc of 2.5 μM HA-Ahx-Ahx-Ub-VME probe at room temperature. The reaction was stopped by addition of 5×SDS sample loading buffer and proteins separated by SDS PAGE and western blotting. USP30 was detected using an anti-USP30 Sheep S746D antibody (MRC PPU Reagents and Services) and a rabbit anti sheep secondary IgG (H+L) horseradish peroxidase conjugated (Thermo #31480) and visualised using ECL reagent (GE #RPN2109) on a GE LAS4000 imager. Target engagement was measured by quantitation of the bands corresponding to USP30 and USP30 bound to the Ub-VME probe and expression of this proportion compared to vehicle treated control.
Cell TE WB: USP30 endogenous cellular target engagement western blot (WB) assay. Assays the activity of compounds against USP30 in cells using an irreversible activity probe to monitor USP30 activity.

Sequence of Cathepsin S (P25774 115-331, species assumed): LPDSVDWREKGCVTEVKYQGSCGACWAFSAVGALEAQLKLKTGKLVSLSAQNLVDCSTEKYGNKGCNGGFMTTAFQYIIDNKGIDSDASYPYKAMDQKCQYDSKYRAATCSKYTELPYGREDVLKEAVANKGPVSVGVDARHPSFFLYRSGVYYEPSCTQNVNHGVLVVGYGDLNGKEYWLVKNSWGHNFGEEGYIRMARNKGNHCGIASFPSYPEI

Row | Compound | IC50 [1] [µM] | fold more potent against USP30 than Reference Example A ([1]; biochemical assay) [fold] | fold more potent against USP30 than Reference Example E ([1]; biochemical assay) [fold] | fold more potent against USP30 than Reference Example F ([1]; biochemical assay) [fold] | fold more potent against USP30 than Reference Example G ([1]; biochemical assay) [fold] | DUB selectivity preference for USP30 v UCHL1 [2] | IC50 [2] [µM] | IC50 [3] [µM] | IC50 [4] [µM] | EC50 [5] [µM] | fold more potent against USP30 than Reference Example B ([1]; biochemical assay, v Reference Example B) [fold] | fold more potent against USP30 than Reference Example C ([1]; biochemical assay, v Reference Example C) [fold] | fold more potent against USP30 than Reference Example D ([1]; biochemical assay, v Reference Example D) [fold]
1 | C[C@@H]1C[C@@H](NC(=O)c2nnc(-c3cccc(C#N)c3)o2)CN1C#N [Example 1, N-((3R,5R)-1-Cyano-5-methylpyrrolidin-3-yl)-5-(3-cyanophenyl)-1,3,4-oxadiazole-2-carboxamide] | 0.029 | 2.4 | 10.7 | 24 | 152 | 10300 | > 300 | 26.2 | > 300 | 0.064 | – | – | –
2 | N#Cc1cccc(-c2nnc(C(=O)N[C@@H]3C[C@@H](CF)N(C#N)C3)o2)c1 [Example 3, N-((3R,5S)-1-Cyano-5-(fluoromethyl)pyrrolidin-3-yl)-5-(3-cyanophenyl)-1,3,4-oxadiazole-2-carboxamide] | 0.013 | 5.4 | 24 | 54 | 338 | 15400 | 200 | 18.8 | 256 | 0.037 | 3.4 | 2 | 3.2
